From patent US6242437A, “Cephem derivatives” (Meiji Seika Kaisha, Ltd., priority 1996, dated 2001)
In brackets after ≈: the same amount, converted by molar mass. Where a name gives a salt, the structure may show the parent alone.

Columns and labels:
Test in all cases: Minimum inhibitory concentration, two-fold dilution method
Type in all cases: cell-based
P. aeruginosa PA01 = conditions: Pseudomonas aeruginosa; P. aeruginosa PA01, Imipenem- and Aztreonam-resistant; 10^6 CFU/ml, 35° C., 18 to 20 hr
Experimental: (§1) The antibacterial activity of the compounds according to the present invention was assayed in terms of the minimum inhibitory concentration, for various bacteria, measured by the conventional two-fold dilution method described in, for example, CHEMOTHERAPY, Vol. 29, No. 1, 76-79 (1981). The measurement was carried out in the following manner: 10^6 CFU/ml of a bacterium to be tested was inoculated on a Medium N for disc susceptibility test (manufactured by Nissui Pharmaceutical Co., Ltd.) and cultivated at 35° C. for 18 to 20 hr.
(§2) The test compounds were the compounds prepared in Examples 4 and 5, Cefozopran (CZOP, control 1), Cefpirome (CPR, control 2), the compound prepared in Example 66 (control 3) described in WO 95/07912.

E. cloacae G-0008 = conditions: Enterobacter cloacae, G0008, 10^6 CFU/ml, 35° C., 18 to 20 hr
Experimental: as §1, §2

K. pneumoniae PCI602 = conditions: Klebsiella pneumoniae, 10^6 CFU/ml, 35° C., 18 to 20 hr
Experimental: as §1, §2

E. coli NIHJ JC-2 = conditions: Escherichia coli, NIHJJC2, 10^6 CFU/ml, 35° C., 18 to 20 hr
Experimental: as §1, §2

S. pneumoniae PRC9 = conditions: Streptococcus pneumoniae; S. pneumoniae PRC9, penicillin-resistant (PRSP); 10^6 CFU/ml, 35° C., 18 to 20 hr
Experimental: as §1, §2

S. pneumoniae IP692 = conditions: Streptococcus pneumoniae, 10^6 CFU/ml, 35° C., 18 to 20 hr
Experimental: as §1, §2

S. aureus 126 = conditions: Staphylococcus aureus; S. aureus 126, methicilline-resistant (MRSA); 10^6 CFU/ml, 35° C., 18 to 20 hr
Experimental: as §1, §2

S. marcescens No. 1 = conditions: Serratia marcescens, 10^6 CFU/ml, 35° C., 18 to 20 hr
Experimental: as §1, §2

S. epidermidis ATCC14990 = conditions: Staphylococcus epidermidis, 10^6 CFU/ml, 35° C., 18 to 20 hr
Experimental: as §1, §2

S. aureus 209P JC-1 = conditions: Staphylococcus aureus, 10^6 CFU/ml, 35° C., 18 to 20 hr
Experimental: as §1, §2

M. morganii 1510/S-1 = conditions: Morganella morganii, 1510/S1, 10^6 CFU/ml, 35° C., 18 to 20 hr
Experimental: as §1, §2

P. aeruginosa E-2 = conditions: Pseudomonas aeruginosa, E2, 10^6 CFU/ml, 35° C., 18 to 20 hr
Experimental: as §1, §2

C. freundii GN346/16 = conditions: Citrobacter freundii, 10^6 CFU/ml, 35° C., 18 to 20 hr
Experimental: as §1, §2

P. aeruginosa GN10362 = conditions: Pseudomonas aeruginosa, 10^6 CFU/ml, 35° C., 18 to 20 hr
Experimental: as §1, §2

S. pneumoniae JPR20 = conditions: Streptococcus pneumoniae; S. pneumoniae JPR20, penicillin-resistant (PRSP); 10^6 CFU/ml, 35° C., 18 to 20 hr
Experimental: as §1, §2

S. pneumoniae JPR9 = conditions: Streptococcus pneumoniae; S. pneumoniae JPR9, penicillin-resistant (PRSP); 10^6 CFU/ml, 35° C., 18 to 20 hr
Experimental: as §1, §2

SMILES	MIC (P. aeruginosa PA01) [µg/mL]	MIC (E. cloacae G-0008) [µg/mL]	MIC (K. pneumoniae PCI602) [µg/mL]	MIC (E. coli NIHJ JC-2) [µg/mL]	MIC (S. pneumoniae PRC9) [µg/mL]	MIC (S. pneumoniae IP692) [µg/mL]	MIC (S. aureus 126) [µg/mL]	MIC (S. marcescens No. 1) [µg/mL]	MIC (S. epidermidis ATCC14990) [µg/mL]	MIC (S. aureus 209P JC-1) [µg/mL]	MIC (M. morganii 1510/S-1) [µg/mL]	MIC (P. aeruginosa E-2) [µg/mL]	MIC (C. freundii GN346/16) [µg/mL]	MIC (P. aeruginosa GN10362) [µg/mL]	MIC (S. pneumoniae JPR20) [µg/mL]	MIC (S. pneumoniae JPR9) [µg/mL]
CO/N=C(\C(=O)N[C@@H]1C(=O)N2C(C(=O)[O-])=C(C[n+]3ccn4ncccc43)CS[C@H]12)c1nsc(N)n1 [Control 1, Cefozopran, reference compound]	12.5 (≈ 24.2 µM)	0.1 (≈ 0.194 µM)	0.1 (≈ 0.194 µM)	0.05 (≈ 0.097 µM)	1.56 (≈ 3.03 µM)	0.05 (≈ 0.097 µM)	50 (≈ 97 µM)	0.1 (≈ 0.194 µM)	0.78 (≈ 1.51 µM)	0.39 (≈ 0.756 µM)	0.1 (≈ 0.194 µM)	0.78 (≈ 1.51 µM)	0.05 (≈ 0.097 µM)	0.78 (≈ 1.51 µM)		
CO/N=C(\C(=O)N[C@@H]1C(=O)N2C(C(=O)[O-])=C(C[n+]3cccc4c3CCC4)CS[C@H]12)c1csc(N)n1 [Control 2, Cefpirome, reference compound]	25 (≈ 48.6 µM)	0.05 (≈ 0.0972 µM)	0.05 (≈ 0.0972 µM)	0.05 (≈ 0.0972 µM)	0.78 (≈ 1.52 µM)	≤ 0.025	50 (≈ 97.2 µM)	≤ 0.025	0.39 (≈ 0.758 µM)	0.2 (≈ 0.389 µM)	≤ 0.025	3.13 (≈ 6.08 µM)	0.05 (≈ 0.0972 µM)	3.13 (≈ 6.08 µM)		
Nc1nc(/C(=N/OCF)C(=O)N[C@@H]2C(=O)N3C(C(=O)[O-])=C(C[n+]4cc5sccn5c4CNS(N)(=O)=O)CS[C@H]23)ns1 [Ex. 4, (6R,7R)-7-[(Z)-2-(5-amino-1,2,4-thiadiazol-3-yl)-2-(fluoromethoxyimino)acetamido]-3-[5-sulfamidomethylimidazo[5,1-b]thiazolium-6-yl]methyl-3-cephem-4-carboxylate (inner salt)]	3.13	0.05	≤ 0.025	≤ 0.025	0.39	≤ 0.025	6.25	0.05	0.78	0.78	≤ 0.025	0.78	≤ 0.025	0.39	0.05	0.2
CO/N=C(\C(=O)N[C@@H]1C(=O)N2C(C(=O)[O-])=C(C[n+]3cc4sccn4c3CNS(N)(=O)=O)CS[C@H]12)c1nsc(N)n1 [Ex. 5, (6R,7R)-7-[(Z)-2-(5-Amino-1,2,4-thiadiazol-3-yl)-2-(methoxyimino)acetamido]-3-[5-sulfamidomethylimidazo[5,1-b]thiazolium-6-yl]methyl-3-cephem-4-carboxylate (inner salt)]	3.13	0.1	0.05	0.05	0.39	≤ 0.025	6.25	0.1	0.78	0.78	0.05	0.78	0.05	0.78		
